This note sets out measurements from paper PMC9680624 (RSC Advances, 2022).

In one series the test system is HepG-2. Briefly: In vitro anti-proliferative activity, MTT assay. The class given is cell-based. Particulars: Homo sapiens, HepG2, 24 h, read-out: In vitro cytotoxicity IC50 HepG-2. Background: Formazan colour is commonly taken as a measure of viable cells.
Another series relates to MCF-7. Briefly: In vitro anti-proliferative activity, MTT assay. The class given is cell-based. To be noted: Homo sapiens, MCF7, 24 h, read-out: In vitro cytotoxicity IC50 MCF-7.
Another series relates to PC3. Nature of the series: In vitro anti-proliferative activity, MTT assay. The class given is cell-based. To be noted: Homo sapiens, PC-3, 24 h, read-out: In vitro cytotoxicity IC50 PC3.
Another series deals with caspase-8. Briefly: Caspase-8 level in HepG-2 cell supernatant, ELISA. The class given is cell-based, human. Particulars: for increase of caspase-8 level: HepG-2 cells, versus control cells; for CASPASE-8 level: HepG-2 supernatant, ELISA, 10 μM, 72 h, control 1.08. (In an ELISA, binding on a coated surface is turned into a signal by an enzyme label.)
In the next series the test system is VEGF. Briefly: VEGF level in HepG-2 cell supernatant, ELISA. The class given is cell-based, human. To be noted: HepG-2 supernatant, 10 μM, 72 h, control 432.5.
In the next series the test system is NF-κB P65. Briefly: NF-κB P65 level in HepG-2 cell lysate, ELISA. The class given is cell-based, human. Particulars: 72 h, control 278.1.
The next series relates to TNF-α. Briefly: TNF-α level in HepG-2 cell supernatant, ELISA. Type of series: cell-based, human. To be noted: HepG-2 supernatant, 10 μM, 72 h, control 162.5.
A short description of series [1]: Cytotoxicity against Vero cells, MTT assay. Type of series: cell-based. To be noted: African green monkey, Vero cells (normal, non-cancerous cell line).
The test system of the next series is Vero cells. Nature of the series: Cytotoxicity against Vero cells, MTT assay. The class given is cell-based. Particulars: for Selectivity index (SI) HepG-2: SI = cytotoxicity against Vero cells/cytotoxicity against HepG-2 cell line; for Selectivity index (SI) PC3: SI = cytotoxicity against Vero cells/cytotoxicity against PC3 cell line.

In general, IC50 refers to the midpoint of a concentration-inhibition curve.

Values after ≈ are worked out from the molar mass of the structure shown.

As for `Fc1ccc(Nc2nc(Cl)nc3ccccc23)cc1Cl` [Compound 6, 2-Chloro-N-(3-chloro-4-fluorophenyl)quinazolin-4-amine], the IC50 worked out at 74.8 ± 4.1 µg/mL (≈ 243 µM) in the series with HepG-2, 81.5 ± 4.2 µg/mL (≈ 265 µM) with MCF-7 and 85 ± 4.7 µg/mL (≈ 276 µM) with PC3.

For the molecule `CNc1nc(Nc2ccc(F)c(Cl)c2)c2ccccc2n1` [Compound 7a, N ^4-(3-Chloro-4-fluorophenyl)-N^2-methylquinazoline-2,4-diamine], the results for the IC50 in the series on HepG-2, with MCF-7 and in the series on PC3 were 40.5 ± 2.8 µg/mL (≈ 134 µM), 28.1 ± 2.1 µg/mL (≈ 92.9 µM) and 47.2 ± 2.8 µg/mL (≈ 156 µM), respectively.

As to `CCNc1nc(Nc2ccc(F)c(Cl)c2)c2ccccc2n1` [Compound 7b, N ^4-(3-Chloro-4-fluorophenyl)-N^2-ethylquinazoline-2,4-diamine], the IC50 with HepG-2 amounted to 11.7 ± 0.8 µg/mL (≈ 36.9 µM); with MCF-7, 9.45 ± 0.9 µg/mL (≈ 29.8 µM); with PC3, 15.5 ± 1.3 µg/mL (≈ 48.9 µM); in series [1], 163.6 ± 1.12 µg/mL (≈ 516 µM). The “increase of caspase-8 level” value in the series on caspase-8 is listed as “threefold increase”. Moreover, the CASPASE-8 level with caspase-8 was 3.2 ng mL^−1. Besides, the VEGF level with VEGF came out at 218.5 pg/mL. In addition, the “NFκB P65 level” value in the series on NF-κB P65 was 113.7 pg/mL. This molecule came in with a TNF-α level in the series on TNF-α of 79.3 pg/mL. In the series with Vero cells, the “Selectivity index (SI) HepG-2” value is 13.78. In addition, the “Selectivity index (SI) MCF-7” value with Vero cells (SI = cytotoxicity against Vero cells/cytotoxicity against MCF-7 cell line) came to 17.04. In addition, the “Selectivity index (SI) PC3” value with Vero cells came to 10.40.

As to `Fc1ccc(Nc2nc(Cl)nc3cccc(Cl)c23)cc1Cl` [Compound 11a, 2,5-Dichloro-N-(3-chloro-4-fluorophenyl)quinazolin-4-amine], the results for the IC50 in the series with HepG-2, in the series with MCF-7 and with PC3 were 77.2 ± 4.2 µg/mL (≈ 225 µM), 86.1 ± 4.4 µg/mL (≈ 251 µM) and 91.3 ± 4.9 µg/mL (≈ 266 µM), respectively.

Turning to `Fc1ccc(Nc2nc(Cl)nc3ccc(Cl)cc23)cc1Cl` [Compound 11b, 2,6-Dichloro-N-(3-chloro-4-fluorophenyl)quinazolin-4-amine], the IC50 in the series with HepG-2 is 38.7 ± 2.8 µg/mL (≈ 113 µM); with MCF-7, 45.9 ± 3 µg/mL (≈ 134 µM); with PC3, 51.2 ± 3.5 µg/mL (≈ 149 µM).

With `O=C1CCC(Nc2nc(Cl)nc3cccc(Cl)c23)C(=O)N1` (stereo not shown) [Compound 13a, 3-((2,5-Dichloroquinazolin-4-yl)amino)piperidine-2,6-dione], the values for the IC50 in the series on HepG-2, in the series on MCF-7 and in the series on PC3 were 46.3 ± 3.1 µg/mL (≈ 142 µM), 35.3 ± 2.4 µg/mL (≈ 109 µM) and 54.3 ± 3 µg/mL (≈ 167 µM), respectively.

Regarding `O=C1CCC(Nc2nc(Cl)nc3ccc(Cl)cc23)C(=O)N1` (stereo not shown) [Compound 13b, 3-((2,6-Dichloroquinazolin-4-yl)amino)piperidine-2,6-dione], the IC50 with HepG-2 was determined as 59 ± 3.3 µg/mL (≈ 181 µM); in the series on MCF-7 it was 29.3 ± 2.3 µg/mL (≈ 90.2 µM); with PC3 it was 38.4 ± 3.1 µg/mL (≈ 118 µM).

As to `NC(=O)NNc1nc(Cl)nc2cccc(Cl)c12` [Compound 15a, 2-(2,5-Dichloroquinazolin-4-yl)hydrazine-1-carboxamide], the IC50 in the series on HepG-2 came out at 24.5 ± 2 µg/mL (≈ 90.1 µM); in the series with MCF-7 it was 17.3 ± 1.3 µg/mL (≈ 63.7 µM); with PC3, 26.1 ± 2 µg/mL (≈ 95.8 µM).

For `NC(=O)NNc1nc(Cl)nc2ccc(Cl)cc12` [Compound 15b, 2-(2,6-Dichloroquinazolin-4-yl)hydrazine-1-carboxamide], the figures for the IC50 in the series on HepG-2, with MCF-7 and in the series on PC3 were 16.2 ± 1.4 µg/mL (≈ 59.5 µM), 9.87 ± 0.9 µg/mL (≈ 36.3 µM) and 13.8 ± 1.2 µg/mL (≈ 50.7 µM), respectively.

`Cc1ccc(S(=O)(=O)NNc2nc(Cl)nc3cccc(Cl)c23)cc1` [Compound 19a, N′-(2,5-Dichloroquinazolin-4-yl)-4-methylbenzenesulfonohydrazide]: the IC50 in the series with HepG-2 came out at 19.1 ± 1.5 µg/mL (≈ 49.8 µM); with MCF-7 it was 12.8 ± 1 µg/mL (≈ 33.3 µM); in the series with PC3 it was 21.5 ± 1.6 µg/mL (≈ 56 µM).

Consider `O=S(=O)(NNc1nc(Cl)nc2cccc(Cl)c12)c1ccc(F)cc1` [Compound 19b, N′-(2,5-Dichloroquinazolin-4-yl)-4-fluorobenzenesulfonohydrazide], for which the IC50 with HepG-2 amounted to 28.9 ± 2.2 µg/mL (≈ 74.7 µM); with MCF-7 it was 20.5 ± 1.5 µg/mL (≈ 52.9 µM); in the series on PC3 it was 32.7 ± 2.3 µg/mL (≈ 84.5 µM).

Take `Cc1ccc(S(=O)(=O)NNc2nnc(Cl)c3ccccc23)cc1` [Compound 24a, N′-(4-Chlorophthalazin-1-yl)-4-methylbenzenesulfonohydrazide]: the IC50 with HepG-2 is 3.87 ± 0.2 µg/mL (≈ 11.1 µM); in the series on MCF-7 it was 6.07 ± 0.7 µg/mL (≈ 17.4 µM); with PC3, 8.63 ± 0.6 µg/mL (≈ 24.7 µM).

As for `O=S(=O)(NNc1nnc(Cl)c2ccccc12)c1ccc(F)cc1` [Compound 24b, N′-(4-Chlorophthalazin-1-yl)-4-fluorobenzenesulfonohydrazide], the IC50 in the series on HepG-2 is 2.51 ± 0.1 µg/mL (≈ 7.11 µM); in the series with MCF-7 it was 5.8 ± 0.4 µg/mL (≈ 16.4 µM); with PC3 it was 4.11 ± 0.3 µg/mL (≈ 11.7 µM); in series [1] it was 161.1 ± 1.42 µg/mL (≈ 457 µM). For the same molecule, in the series on caspase-8, the “increase of caspase-8 level” value is reported as “about 7 folds”. The same molecule registered a CASPASE-8 level with caspase-8 of 6.9 ng mL^−1. In addition, the VEGF level in the series with VEGF was 185.3 pg/mL. For the same molecule, the “NFκB P65 level” value in the series with NF-κB P65 came out at 76.5 pg/mL. This molecule returned a TNF-α level in the series with TNF-α of 82.5 pg/mL. For the same molecule, in the series on Vero cells, the “Selectivity index (SI) HepG-2” value is 65.18. Further, the “Selectivity index (SI) PC3” value with Vero cells is given as 39.80.

Consider `O=S(=O)(NNc1nnc(Cl)c2ccccc12)c1ccccc1` [Compound 24c, N′-(4-Chlorophthalazin-1-yl)benzenesulfonohydrazide], for which the IC50 in the series on HepG-2 is 7.96 ± 0.5 µg/mL (≈ 23.8 µM); with MCF-7, 8.12 ± 0.7 µg/mL (≈ 24.3 µM); with PC3 it was 14.9 ± 1.1 µg/mL (≈ 44.6 µM).

In the case of `O=C1CCC(N2C(=O)c3ccccc3C2=O)C(=O)N1` (stereo not shown) [Thalidomide, thalidomide, reference compound], the IC50 amounted to 11.3 ± 0.54 µg/mL (≈ 43.6 µM) in the series on HepG-2, 14.6 ± 0.57 µg/mL (≈ 56.5 µM) in the series on MCF-7 and 16.9 ± 0.7 µg/mL (≈ 65.3 µM) in the series with PC3. In the series with caspase-8, the “increase of caspase-8 level” value stood at 8 folds. Besides, the CASPASE-8 level with caspase-8 is given as 8.3 ng mL^−1. In the series on VEGF, the VEGF level worked out at 153.2 pg/mL. For the same molecule, the “NFκB P65 level” value in the series on NF-κB P65 is 110.5 pg/mL. In the series on TNF-α, this molecule had a TNF-α level of 53.1 pg/mL.
